Data as given in patent US20080262064A1, “Novel Compounds For The Treatment Of GI Disorders 682” (ASTRAZENECA AB, priority 2007, published 2008).

Target: T1, GABAB receptor (Homo sapiens, UniProt O75899+Q9UBS5)
T1 construct: expressed in transfected cells
Experiment: [35S]-GTPγS binding assay, potency of PAM on the GABA dose-response
Assay type: biochemical
Conditions: membranes from CHO cell lines expressing GABAB receptor; GABA in presence or absence of PAM
Excerpt: GABABR1a and GABABR2 were cloned from human brain cDNA and subcloned into pCI-Neo (Promega) and pALTER-1(Promega), respectively. A GABABR1a-Gαqi5 fusion protein expression vector was constructed using the pCI-Neo-GABABR1a cDNA plasmid and pLEC1-Gαqi5 (Molecular Devices, Calif.). In order to make the Gαqi5 pertussis toxin insensitive, Cys356 was mutated to Gly using standard PCR methodology with the primers 5′-[…]-3′ (forward) and 5′-GCGGCCG […]-3′ (reverse). The Gαqi5mut cDNA was ligated into the BamHI and NotI sites of pcDNA3.0 (Invitrogen). The GABAB R1a coding sequence was amplified by PCR from pCI-Neo-GABABR1a using the primers, 5′-[…]-3′ (forward) and 5′-[…]-3′ (reverse) and subcloned into the BamHI site of pcDNA3.0-Gαqis5mut.
For generation of a cell line expressing the GABABR1a/GABABR2 heterodimer, GABABR1a plasmid DNA (4 μg) GABABR2 plasmid DNA (4 μg) and lipofectamine (24 μl) were mixed in 5 ml OptiMEM and incubated for 45 minutes at room temperature. The cells were exposed to the transfection medium for 5 hours, which then was replaced with culture medium. The cells were cultured for an additional 10 days before selection agents (300 μg/ml hygromycin and 400 μg/ml geneticin) were added. Twenty-four days after transfection, single cell sorting into 96-well plates by flow cytometry was performed using a FACS Vantage SE (Becton Dickinson, Palo Alto, Calif.), After expansion, the GABAB receptor functional response was tested using the FLIPR assay described below. The clone with the highest functional response was collected, expanded and then subcloned by single cell sorting. The clonal cell line with the highest peak response in the FLIPR was used in the present study.
For generation of a stable cell line expressing GABABR1a-Gαqi5 fusion protein and GABABR2, GABABR1a-Gαqi5mut plasmid DNA (8 μg) GABABR2 plasmid DNA (8 μg) and lipofectamine (24 μl) were mixed in 5 ml OptiMEM and incubated for 45 minutes at room temperature. The cells were exposed to the transfection medium for 5 hours, which then was replaced with culture medium. After forty-eight hours, the cells were detached and seeded in 6 well plates (2000 cells well) and grown in culture medium supplemented with geneticin (400 μg/ml) and zeocin (250 μg/ml). After 4 days, cells from single colonies were collected and transferred to a 24-well plate. After 10 days, the cell clones were seeded in T-25 flasks and grown for another 16 days before they were tested for GABAB receptor mediated functional response. […] The clonal cell line that gave the highest peak response in the FLIPR was used in the present study.
[^35S]-GTPγS binding assays were performed at 30° C. for 45 min in membrane buffer (100 mM NaCl, […], 1 mM EDTA, 50 mM HEPES, pH 7.4) containing 0.025 μg/μl of membrane protein (prepared from the cell lines described above) with 0.01% bovine serum albumin (fatty acid free): 10 μM GDP, 100 μM DTT and 0.53 nM [^35S]-GTPγS (Amersham-Pharmacia Biotech) in a final volume of 200 μl. Non-specific binding was determined in the presence of 20 μM GTPγS. The reaction was started by the addition of GABA at concentration between 1 mM and 0.1 nM in the presence or absence of the required concentration of PAM. The reaction was terminated by addition of ice-cold wash buffer (50 mM Tris-HCl, 5 mM MgCl2, 50 mM NaCl, pH 7.4) followed by rapid filtration under vacuum through Printed Filtermat A glass fiber filters (Wallac) (0.05% PEI treated) using a Micro 96 Harvester (Skatron Instruments). The filters were dried for 30 min at 50° C., then a paraffin scintillant pad was melted onto the filters and the bound radioactivity was determined using a 1450 Microbeta Trilux (Wallac) scintillation counter.
GABA dose-response curves in the presence and absence of test compounds were constructed using the 4-parameter logistic equation, y=ymax+((ymin−ymax)/1+(x/C)^D), where C=EC50 and D=slope factor.

T1 sequence (Q9UBS5 15-961 limits assumed): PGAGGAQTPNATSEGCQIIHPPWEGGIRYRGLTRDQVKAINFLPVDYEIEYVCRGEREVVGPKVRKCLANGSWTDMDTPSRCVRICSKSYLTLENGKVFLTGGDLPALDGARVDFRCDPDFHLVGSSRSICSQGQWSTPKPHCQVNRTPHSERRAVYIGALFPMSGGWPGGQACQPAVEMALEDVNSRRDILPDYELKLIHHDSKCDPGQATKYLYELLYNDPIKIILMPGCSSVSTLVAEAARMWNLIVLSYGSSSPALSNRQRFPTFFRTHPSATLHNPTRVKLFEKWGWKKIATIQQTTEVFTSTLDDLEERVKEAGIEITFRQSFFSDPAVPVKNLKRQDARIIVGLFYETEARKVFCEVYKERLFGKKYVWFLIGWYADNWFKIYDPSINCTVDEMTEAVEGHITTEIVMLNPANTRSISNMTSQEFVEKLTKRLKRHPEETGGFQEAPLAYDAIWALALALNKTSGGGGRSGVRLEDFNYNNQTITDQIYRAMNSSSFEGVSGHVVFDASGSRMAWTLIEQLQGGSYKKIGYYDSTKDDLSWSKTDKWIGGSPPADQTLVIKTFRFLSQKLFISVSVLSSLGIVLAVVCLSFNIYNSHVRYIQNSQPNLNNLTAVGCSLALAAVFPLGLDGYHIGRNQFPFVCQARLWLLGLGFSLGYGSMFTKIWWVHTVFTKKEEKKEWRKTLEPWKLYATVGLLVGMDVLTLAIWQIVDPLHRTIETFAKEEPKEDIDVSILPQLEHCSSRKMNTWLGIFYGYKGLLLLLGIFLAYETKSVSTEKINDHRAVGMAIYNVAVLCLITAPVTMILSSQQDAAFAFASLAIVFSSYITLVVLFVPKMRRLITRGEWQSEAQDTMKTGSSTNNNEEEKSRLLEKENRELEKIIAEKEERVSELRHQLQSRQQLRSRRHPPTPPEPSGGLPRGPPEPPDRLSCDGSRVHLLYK
T1 sequence (O75899 42-941): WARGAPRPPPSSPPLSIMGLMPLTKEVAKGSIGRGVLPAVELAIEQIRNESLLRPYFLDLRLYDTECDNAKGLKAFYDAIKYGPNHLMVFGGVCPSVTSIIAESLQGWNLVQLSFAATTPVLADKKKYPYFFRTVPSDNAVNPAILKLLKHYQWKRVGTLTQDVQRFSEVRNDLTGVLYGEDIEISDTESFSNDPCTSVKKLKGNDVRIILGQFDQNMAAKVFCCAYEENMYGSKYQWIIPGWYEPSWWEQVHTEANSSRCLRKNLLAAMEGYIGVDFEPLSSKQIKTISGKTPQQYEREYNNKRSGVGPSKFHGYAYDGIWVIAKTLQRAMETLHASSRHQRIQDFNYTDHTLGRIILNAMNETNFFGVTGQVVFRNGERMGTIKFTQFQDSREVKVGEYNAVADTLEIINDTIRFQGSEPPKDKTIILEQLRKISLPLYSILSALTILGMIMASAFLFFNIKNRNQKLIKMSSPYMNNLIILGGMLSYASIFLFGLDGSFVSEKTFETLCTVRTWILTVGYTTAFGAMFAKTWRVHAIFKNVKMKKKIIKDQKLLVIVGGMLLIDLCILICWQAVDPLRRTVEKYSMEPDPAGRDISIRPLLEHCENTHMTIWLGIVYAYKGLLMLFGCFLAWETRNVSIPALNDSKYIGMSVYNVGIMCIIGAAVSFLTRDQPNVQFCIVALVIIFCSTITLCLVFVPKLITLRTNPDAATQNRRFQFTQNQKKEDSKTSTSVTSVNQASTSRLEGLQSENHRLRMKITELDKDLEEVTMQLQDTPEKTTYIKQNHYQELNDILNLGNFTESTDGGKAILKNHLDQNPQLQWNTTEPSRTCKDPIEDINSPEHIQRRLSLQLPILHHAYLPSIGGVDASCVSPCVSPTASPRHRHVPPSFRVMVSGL

SMILES | IC50 [nM]
COc1nc(NC(=O)C2(c3ccc(Cl)cc3)CCCC2)c(C(=O)OC(C)(C)C)n1-c1ccc(F)cc1 [Example 4, Tert-butyl 4-({[1-(4-chlorophenyl)cyclopentyl]carbonyl}amino)-1-(4-fluorophenyl)-2-methoxy-1H-imidazole-5-carboxylate] | 1400
CCc1nc(NC(=O)c2ccc(Cl)cc2Cl)c(C(=O)OC(C)(C)C)n1-c1ccc(F)cc1 [Example 20, Tert-butyl 4-[(2,4-dichlorobenzoyl)amino]-2-ethyl-1-(4-fluorophenyl)-1H-imidazole-5-carboxylate] | 3700
COc1nc(NC(=O)c2ccc(Cl)cc2Cl)c(C(=O)OC(C)(C)C)n1-c1ccc(F)cc1 [Example 9, Tert-butyl 4-[(2,4-dichlorobenzoyl)amino]-1-(4-fluorophenyl)-2-methoxy-1H-imidazole-5-carboxylate] | 2160
COc1nc(NC(=O)C2COc3ccccc3O2)c(C(=O)OC(C)(C)C)n1-c1ccc(F)cc1 (stereo not shown) [Example 3, Tert-butyl 4-[(2,3-dihydro-1,4-benzodioxin-2-ylcarbonyl)amino]-1-(4-fluorophenyl)-2-methoxy-1H-imidazole-5-carboxylate] | 1500
COc1nc(NC(=O)c2scc(S(=O)(=O)C(C)C)c2Cl)c(C(=O)OC(C)(C)C)n1-c1ccc(F)cc1 [Example 1, Tert-butyl 4-({[3-chloro-4-(isopropylsulfonyl)-2-thienyl]carbonyl}amino)-1-(4-fluorophenyl)-2-methoxy-1H-imidazole-5-carboxylate] | 4000
COc1nc(NC(=O)c2cnn(-c3ccc(Cl)cc3)c2C(F)(F)F)c(C(=O)OC(C)(C)C)n1-c1ccc(F)cc1 [Example 6, Tert-butyl 4-({[1-(4-chlorophenyl)-5-(trifluoromethyl)-1H-pyrazol-4-yl]carbonyl}amino)-1-(4-fluorophenyl)-2-methoxy-1H-imidazole-5-carboxylate] | 1600
COc1nc(NC(=O)c2ccc(Cl)cc2)c(C(=O)OC(C)(C)C)n1-c1ccc(F)cc1 [Example 2, Tert-butyl 4-[(4-chlorobenzoyl)amino]-1-(4-fluorophenyl)-2-methoxy-1H-imidazole-5-carboxylate] | 3100
COCCOCC(C)(C)OC(=O)c1c(NC(=O)c2ccc(Cl)cc2Cl)nc(OC)n1-c1ccc(F)cc1 [Example 10, 2-(2-methoxyethoxy)-1,1-dimethylethyl 4-[(2,4-dichlorobenzoyl)amino]-1-(4-fluorophenyl)-2-methoxy-1H-imidazole-5-carboxylate] | 1500
COCC(C)(C)OC(=O)c1c(NC(=O)C2COc3ccccc3O2)nc(OC)n1-c1ccc2c(c1)OCO2 (stereo not shown) [Example 15, 2-methoxy-1,1-dimethylethyl 1-(1,3-benzodioxol-5-yl)-4-[(2,3-dihydro-1,4-benzodioxin-2-ylcarbonyl)amino]-2-methoxy-1H-imidazole-5-carboxylate] | 1400
CCC1(C)CCC(C(C)(C)OC(=O)c2c(NC(=O)c3ccc(Cl)cc3Cl)nc(OC)n2-c2ccc(F)cc2)O1 (stereo not shown) [Example 14, 1-(5-ethyl-5-methyltetrahydrofuran-2-yl)-1-methylethyl 4-[(2,4-dichlorobenzoyl)amino]-1-(4-fluorophenyl)-2-methoxy-1H-imidazole-5-carboxylate] | 2100
COCC(C)(C)OC(=O)c1c(NC(=O)COCc2ccccc2)nc(OC)n1-c1ccc2c(c1)OCO2 [Example 17, 2-methoxy-1,1-dimethylethyl 1-(1,3-benzodioxol-5-yl)-4-{[(benzyloxy)acetyl]amino}-2-methoxy-1H-imidazole-5-carboxylate] | 3400
COc1nc(NC(=O)c2ccc(Oc3ccccc3)nc2)c(C(=O)OC(C)(C)C)n1-c1ccc(F)cc1 [Example 7, Tert-butyl 1-(4-fluorophenyl)-2-methoxy-4-{[(6-phenoxypyridin-3-yl)carbonyl]amino}-1H-imidazole-5-carboxylate] | 1600
CCOC(=O)C1(OC(=O)c2c(NC(=O)c3ccc(Cl)cc3Cl)nc(OC)n2-c2ccc(F)cc2)CC1 [Example 13, 1-(ethoxycarbonyl)cyclopropyl 4-[(2,4-dichlorobenzoyl)amino]-1-(4-fluorophenyl)-2-methoxy-1H-imidazole-5-carboxylate] | 2000
COc1nc(NC(=O)C(OC)(c2ccccc2)C(F)(F)F)c(C(=O)OC(C)(C)C)n1-c1ccc(F)cc1 (stereo not shown) [Example 5, Tert-butyl 1-(4-fluorophenyl)-2-methoxy4-[(3,3,3-trifluoro-2-methoxy-2-phenylpropanoyl)amino]-1H-imidazole-5-carboxylate] | 6200

Now those with a lower IC50, led by results:

IC50 [nM] | SMILES
1300 | COCC(C)(C)OC(=O)c1c(NC(=O)c2ccc(Cl)cc2Cl)nc(OC)n1-c1cccc(OC)c1 [Example 18, 2-methoxy-1,1-dimethylethyl 4-[(2,4-dichlorobenzoyl)amino]-2-methoxy-1-(3-methoxyphenyl)-1H-imidazole-5-carboxylate]
1200 | COCC(C)(C)OC(=O)c1c(NC(=O)c2ccc(Cl)cc2)nc(OC)n1-c1ccc2c(c1)OCO2 [Example 16, 2-methoxy-1,1-dimethylethyl 1-(1,3-benzodioxol-5-yl)-4-[(4-chlorobenzoyl)amino]-2-methoxy-1H-imidazole-5-carboxylate]
1100 | CCc1nc(NC(=O)c2ccc(N=[N+]=[N-])cc2)c(C(=O)OC(C)(C)C)n1-c1ccc(F)cc1 [Example 19, Tert-butyl 4-[(4-azidobenzoyl)amino]-2-ethyl-1-(4-fluorophenyl)-1H-imidazole-5-carboxylate]
1100 | COc1nc(NC(=O)c2ccc(Cl)cc2Cl)c(C(=O)OC(C)(C)COCC(F)(F)F)n1-c1ccc(F)cc1 [Example 11, 1,1-dimethyl-2-(2,2,2-trifluoroethoxy)ethyl 4-[(2,4-dichlorobenzoyl)amino]-1-(4-fluorophenyl)-2-methoxy-1H-imidazole-5-carboxylate]
960 | COc1nc(NC(=O)c2ccc(Cl)cc2Cl)c(C(=O)OC(C)(C)COc2ccccc2)n1-c1ccc(F)cc1 [Example 12, 1,1-dimethyl-2-phenoxyethyl 4-[(2,4-dichlorobenzoyl)amino]-1-(4-fluorophenyl)-2-methoxy-1H-imidazole-5-carboxylate]
810 | COc1nc(NC(=O)c2c(F)cc(F)cc2F)c(C(=O)OC(C)(C)C)n1-c1ccc(F)cc1 [Example 8, Tert-butyl 1-(4-fluorophenyl)-2-methoxy-4-[(2,4,6-trifluorobenzoyl)amino]-1H-imidazole-5-carboxylate]

Same assay, conditions: potency of PAM in GTPγS assays

EC50 [nM] | SMILES
2160 | COc1nc(NC(=O)c2ccc(Cl)cc2Cl)c(C(=O)OC(C)(C)C)n1-c1ccc(F)cc1 [Example 9, Tert-butyl 4-[(2,4-dichlorobenzoyl)amino]-1-(4-fluorophenyl)-2-methoxy-1H-imidazole-5-carboxylate]
960 | COc1nc(NC(=O)c2ccc(Cl)cc2Cl)c(C(=O)OC(C)(C)COc2ccccc2)n1-c1ccc(F)cc1 [Example 12, 1,1-dimethyl-2-phenoxyethyl 4-[(2,4-dichlorobenzoyl)amino]-1-(4-fluorophenyl)-2-methoxy-1H-imidazole-5-carboxylate]
